Measurements taken from ChEMBL document CHEMBL1697692, “Developing structure-activity relationships for the prediction of hepatotoxicity” (Chem Res Toxicol, 2010).

The compounds below were run on Hepatotoxicity (assay: Literature-mined public compounds from Greene et al multi-species hepatotoxicity modelling dataset).

| Compound | Hepatotoxicity |
| --- | --- |
| CC(C)(C)NC[C@H](O)COc1ccccc1C1CCCC1.CC(C)(C)NC[C@H](O)COc1ccccc1C1CCCC1.O=S(=O)(O)O [PENBUTOLOL SULFATE] | HH: Evidence of human hepatotoxicity |
| CC1(C)S[C@@H]2[C@H](NC(=O)Cc3ccccc3)C(=O)N2[C@H]1C(=O)[O-].[Na+] [PENICILLIN G SODIUM] | HH: Evidence of human hepatotoxicity |
| C1CCC(C(CC2CCCCN2)C2CCCCC2)CC1 (stereo unspecified) [PERHEXILINE] | HH: Evidence of human hepatotoxicity |
| CC1(C)C(C=C(Cl)Cl)C1C(=O)OCc1cccc(Oc2ccccc2)c1 (stereo unspecified) [PERMETHRIN] | NE: No evidence of hepatotoxicity in any species |
| CCOc1ccc(NC(C)=O)cc1 [PHENACETIN] | HH: Evidence of human hepatotoxicity |
| Cl.Nc1ccc(/N=N/c2ccccc2)c(N)n1 [PHENAZOPYRIDINE HYDROCHLORIDE] | HH: Evidence of human hepatotoxicity |
| NNCCc1ccccc1 [PHENELZINE] | NE: No evidence of hepatotoxicity in any species |
| c1ccc2c(c1)Nc1ccccc1S2 [PHENOTHIAZINE] | HH: Evidence of human hepatotoxicity |
| CC(COc1ccccc1)N(CCCl)Cc1ccccc1.Cl (stereo unspecified) [PHENOXYBENZAMINE HYDROCHLORIDE] | NE: No evidence of hepatotoxicity in any species |
| CS(=O)(=O)O.Cc1ccc(N(CC2=NCCN2)c2cccc(O)c2)cc1 [PHENTOLAMINE MESYLATE] | HH: Evidence of human hepatotoxicity |
| S=C=Nc1ccccc1 [PHENYLISOTHIOCYANATE] | AH: Evidence for animal hepatotoxicity but not tested in humans |
| CC(N)C(O)c1ccccc1.Cl (stereo unspecified) [PHENYLPROPANOLAMINE HYDROCHLORIDE] | NE: No evidence of hepatotoxicity in any species |
| O=C1NC(=O)C(c2ccccc2)(c2ccccc2)N1 [PHENYTOIN] | HH: Evidence of human hepatotoxicity |
| CNC(=O)Oc1ccc2c(c1)[C@]1(C)CCN(C)[C@@H]1N2C [PHYSOSTIGMINE] | NE: No evidence of hepatotoxicity in any species |
| CC[C@@H]1C(=O)OC[C@@H]1Cc1cncn1C [PILOCARPINE] | NE: No evidence of hepatotoxicity in any species |
| O=c1[nH]c2ccccc2n1C1CCN(CCCC(c2ccc(F)cc2)c2ccc(F)cc2)CC1 [PIMOZIDE] | NE: No evidence of hepatotoxicity in any species |
| CC(N/C(=N\C#N)Nc1ccncc1)C(C)(C)C (stereo unspecified) [PINACIDIL ANHYDROUS] | NE: No evidence of hepatotoxicity in any species |
| CC(C)NCC(O)COc1cccc2[nH]ccc12 (stereo unspecified) [PINDOLOL] | NE: No evidence of hepatotoxicity in any species |
| CCc1ccc(CCOc2ccc(CC3SC(=O)NC3=O)cc2)nc1 (stereo unspecified) [PIOGLITAZONE] | WE: Weak evidence (<10 case reports) of human hepatotoxicity |
| Cc1cccc(Nc2cc(Cl)nc(SCC(=O)O)n2)c1C [PIRINIXIC ACID] | AH: Evidence for animal hepatotoxicity but not tested in humans |
| CN1C(C(=O)Nc2ccccn2)=C(O)c2ccccc2S1(=O)=O [PIROXICAM] | HH: Evidence of human hepatotoxicity |
| CC(C(=O)O)c1ccc(N2CC=CC2)c(Cl)c1 (stereo unspecified) [PIRPROFEN] | HH: Evidence of human hepatotoxicity |
| C[C@]12C=CC(=O)C=C1CC[C@@H]1[C@@H]2C(=O)C[C@@]2(C)[C@H]1CC[C@]2(O)C(=O)CO [PREDNISONE] | WE: Weak evidence (<10 case reports) of human hepatotoxicity |
| CC(=O)[C@H]1[C@H](C#N)C[C@H]2[C@@H]3CC=C4C[C@@H](O)CC[C@]4(C)[C@H]3CC[C@@]21C [PREGNENOLONE CARBONITRILE] | AH: Evidence for animal hepatotoxicity but not tested in humans |
| COc1cc(NC(C)CCCN)c2ncccc2c1.O=P(O)(O)O.O=P(O)(O)O (stereo unspecified) [PRIMAQUINE PHOSPHATE] | WE: Weak evidence (<10 case reports) of human hepatotoxicity |
| CCC1(c2ccccc2)C(=O)NCNC1=O [PRIMIDONE] | NE: No evidence of hepatotoxicity in any species |
